Among the test systems are HT29 colon; HOP-62 NSCLC; K-562 leukemia; SF-268 CNS; HCT-116 colon; HCT-15 colon; NCI-H522 lung; DU-145 prostate; RXF 393 renal; MDA-N.
What all share (experiment): growth of human tumour cells (NCI), 48 h

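These data come from cells grown in 96-well plates and exposed to compound for 48 hours at five concentrations. GI50 marks 50% less growth. TGI marks complete inhibition of growth.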

In the case of `O=C(Nc1ccc(-n2cc(-c3ccncc3)c(-c3ccc(O)c(Cl)c3)n2)cc1)Nc1ccc(Cl)c(C(F)(F)F)c1`, the GI50 is 10.2 µM in the test with HT29 colon; 6.56 µM in the test with HOP-62 NSCLC; 3.89 µM in the test with K-562 leukemia; 4.36 µM with SF-268 CNS; 3.15 µM in the test with HCT-116 colon; 2.95 µM in the test with HCT-15 colon. The results for the GI50 in the test with NCI-H522 lung, with DU-145 prostate and in the test with RXF 393 renal were 2.54 µM, 4.99 µM and 1.67 µM, respectively. The TGI in the test with HT29 colon stood at 25.2 µM; in the test on HOP-62 NSCLC, 27.6 µM; with K-562 leukemia, 49.4 µM; in the test on SF-268 CNS, 26.7 µM; in the test with HCT-116 colon it was 10.8 µM; in the test with HCT-15 colon, 11.8 µM. Further, the TGI was 13.4 µM in the test on NCI-H522 lung, 18 µM in the test with DU-145 prostate and 3.56 µM in the test with RXF 393 renal.

Consider `C/C(=N\NC(=S)NCCCCNC(=S)N/N=C(\C)c1ccccn1)c1ccccc1`, for which the TGI in the test on HT29 colon is more than 100 µM; in the test with MDA-N, more than 100 µM; in the test on HOP-62 NSCLC it was 6 µM; with K-562 leukemia, more than 100 µM; with SF-268 CNS, more than 36.5 µM; with HCT-116 colon, 81.5 µM. Besides, the TGI was more than 100 µM in the test on HCT-15 colon, 30.7 µM in the test on NCI-H522 lung, more than 50 µM with DU-145 prostate and more than 23.1 µM in the test on RXF 393 renal.

Take `CC(C)C(=O)CC(c1ccc(Cl)cc1)N1N=C(C(C)C)CC1c1ccc(Cl)cc1` (centres undefined): the TGI in the test with HT29 colon, in the test on HOP-62 NSCLC, in the test on K-562 leukemia, in the test with SF-268 CNS, in the test with HCT-116 colon and in the test on NCI-H522 lung was more than 100 µM each time. Further, the TGI in the test with RXF 393 renal was more than 100 µM. Besides, in the test with SF-268 CNS, the GI50 is more than 100 µM.

On to `CC(C)CC(=O)NC(C(=O)NC(C(=O)NC(CC(C)C)C(O)CC(=O)NC(C)C(=O)NC(CC(C)C)C(O)CC(=O)O)C(C)C)C(C)C` (centres undefined), for which the TGI in the test on HT29 colon, in the test with MDA-N, in the test on HOP-62 NSCLC, in the test with K-562 leukemia, in the test on SF-268 CNS and in the test with HCT-116 colon was more than 100 µM in each case. Moreover, the TGI in the test with HCT-15 colon, in the test with NCI-H522 lung and with DU-145 prostate was more than 100 µM in each case.

With `CC(=O)O[C@@H]1C(=O)N(c2ccccc2)[C@@H]1c1cc2ccccc2c2ccccc12`, the TGI is more than 100 µM with HT29 colon; more than 100 µM in the test with MDA-N; more than 100 µM in the test on HOP-62 NSCLC; more than 100 µM in the test on K-562 leukemia; more than 100 µM with SF-268 CNS; 91 µM with HCT-116 colon. The TGI was more than 100 µM with HCT-15 colon, 11.2 µM in the test on NCI-H522 lung, more than 100 µM in the test on DU-145 prostate and 62.6 µM with RXF 393 renal.

`N#CCCN(CCC#N)c1ccc(/C=C(\NC(=O)c2cc([N+](=O)[O-])ccc2Cl)C(=O)Nc2ccccc2)cc1`: the TGI in the test with HOP-62 NSCLC, with K-562 leukemia, in the test on SF-268 CNS, with HCT-116 colon, in the test with HCT-15 colon and in the test with NCI-H522 lung was more than 100 µM each time. In addition, the TGI with RXF 393 renal was more than 100 µM.

On to `Cn1ccc(C(=O)NCCN(CCNC(=O)c2ccn(C)c(=O)c2O)CCNC(=O)c2ccn(C)c(=O)c2O)c(O)c1=O`, for which the TGI in the test with HT29 colon, in the test on MDA-N, in the test with HOP-62 NSCLC, in the test on K-562 leukemia, in the test with SF-268 CNS and with HCT-15 colon was more than 100 µM each time. The TGI with NCI-H522 lung, in the test with DU-145 prostate and with RXF 393 renal was more than 100 µM each time.

Turning to `CCCn1cc2c(SC)nc(SC)nc2n1`, the TGI in the test on HT29 colon, in the test on K-562 leukemia, in the test with SF-268 CNS, in the test with HCT-116 colon, with HCT-15 colon and in the test with RXF 393 renal was more than 100 µM in each case.

As to `O=C(O)CCc1nc2ccccc2[nH]1`, the TGI with HT29 colon, in the test with MDA-N, in the test with HOP-62 NSCLC, in the test on K-562 leukemia, in the test with SF-268 CNS and with HCT-116 colon was more than 100 µM each time. Also, the TGI in the test with HCT-15 colon, with NCI-H522 lung, in the test with DU-145 prostate and with RXF 393 renal was more than 100 µM throughout.

Consider `CCOC(=O)C(Cc1cn(C(C)=O)c2ccccc12)P(=O)(OCC)OCC` (centres undefined), for which the TGI with HT29 colon, in the test on MDA-N, in the test on HOP-62 NSCLC, in the test on K-562 leukemia, in the test on HCT-116 colon and in the test with HCT-15 colon was more than 100 µM throughout. In addition, the TGI with NCI-H522 lung and in the test on DU-145 prostate was more than 100 µM each time.

Consider `O=C(O)c1cc(=O)c2c(OCC(O)COc3cccc4oc(C(=O)O)cc(=O)c34)cccc2o1`, for which the TGI in the test on HT29 colon, in the test with MDA-N, with HOP-62 NSCLC, in the test with K-562 leukemia, with SF-268 CNS and in the test with HCT-116 colon was more than 100 µM each time. Besides, the TGI in the test on HCT-15 colon is more than 100 µM; with NCI-H522 lung, more than 75.2 µM; in the test with DU-145 prostate it was more than 100 µM; in the test on RXF 393 renal, more than 100 µM.

In the case of `Cn1ncc2c(Nc3cccc(Cl)c3)nc(Nc3cccc(Cl)c3)nc21`, the TGI was more than 56.8 µM in the test on HT29 colon; 68.6 µM in the test on HOP-62 NSCLC; 19.2 µM with K-562 leukemia; 55.8 µM in the test with SF-268 CNS; more than 58.3 µM in the test on HCT-116 colon; 30.9 µM in the test with HCT-15 colon. Also, the TGI is 39.1 µM in the test on NCI-H522 lung, 40 µM with DU-145 prostate and 11.6 µM in the test with RXF 393 renal.

In the case of `COc1ccc(C(O)(c2ccccc2)c2nccc3ccccc23)cc1` (centres undefined), the TGI in the test on HT29 colon, in the test on MDA-N, in the test on HOP-62 NSCLC, with K-562 leukemia, in the test with SF-268 CNS and in the test on HCT-116 colon was more than 100 µM throughout. Also, the TGI with HCT-15 colon is more than 100 µM; in the test on NCI-H522 lung, 30.7 µM; in the test on DU-145 prostate, more than 100 µM; in the test on RXF 393 renal, 44.2 µM.

On to `c1ccc(C(NC2=NCCO2)c2ccccc2)cc1`, for which the TGI in the test on HT29 colon, in the test with MDA-N, with HOP-62 NSCLC, in the test on K-562 leukemia, in the test with SF-268 CNS and in the test on HCT-116 colon was more than 10 µM each time. Also, the TGI in the test with HCT-15 colon, in the test on NCI-H522 lung, with DU-145 prostate and in the test on RXF 393 renal was more than 10 µM throughout.

On to `C/C(=N\NC(=S)N(C)C)c1nc2ncccc2[nH]1`, for which the TGI in the test with HT29 colon, with MDA-N, in the test with HOP-62 NSCLC, with K-562 leukemia, in the test with SF-268 CNS and with HCT-116 colon was more than 100 µM throughout. Further, the TGI with HCT-15 colon is more than 100 µM; in the test with NCI-H522 lung, 91.7 µM; in the test with DU-145 prostate it was more than 100 µM; in the test on RXF 393 renal, more than 100 µM.

As to `NNC(=O)CCSc1ccccc1`, the TGI in the test with HT29 colon, in the test on MDA-N, in the test with HOP-62 NSCLC, in the test on K-562 leukemia, in the test on SF-268 CNS and with HCT-116 colon was more than 100 µM each time. Besides, the TGI in the test with HCT-15 colon, in the test on NCI-H522 lung, with DU-145 prostate and in the test with RXF 393 renal was more than 100 µM in each case.

As for `OCCCNc1ncnc2[nH]ncc12`, the TGI in the test on HT29 colon, in the test on MDA-N, in the test on HOP-62 NSCLC, in the test on K-562 leukemia, with SF-268 CNS and in the test with HCT-116 colon was more than 100 µM throughout. The TGI with HCT-15 colon, with NCI-H522 lung, in the test on DU-145 prostate and in the test with RXF 393 renal was more than 100 µM each time.

These data come from PubChem BioAssay (NCI).
